Data as given in patent US20260325685A1, “Radiopharmaceutical Compositions Targeting Carbonic Anhydrase IX and Uses Thereof” (RayzeBio, Inc., priority 2023, published 2026).
pKd: −log10 of the molar value. Read-outs that look alike come from different tables or passages of the source.

Columns and labels:
human CA-IX = target: T1, human CA-IX (Homo sapiens, UniProt Q16790); test: Surface Plasmon Resonance (SPR) binding kinetics to recombinant human CA-IX (Biacore 8K, single-cycle kinetics, 1:1 binding model)
T1 construct: purchased Acro CA9-H82E3
Summary of the method: (§1)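 First, ligand at 10 μg/mL was captured on streptavidin to 1200-1800 RU, with 180 s injection for CA-IX and 75 s for CA-XII. Next, compound (100-0.39 nM, 9 levels) in PBS-P+ with 1% DMSO was injected. Association lasted 120 s and dissociation 1200 s at 25° C.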

human CA-XII = target: T2, human CA-XII (Homo sapiens, UniProt O43570); test: Surface Plasmon Resonance (SPR) binding kinetics to recombinant human CA-XII (Biacore 8K, single-cycle kinetics, 1:1 binding model)
T2 construct: purchased Creative BioMart CA12-261H
Summary of the method: as §1

[1] = Chelated Metal: Lu-175; SPR, 25° C., pH 7.4; read-out: CAIX KD
[2] = Chelated Metal: Lu-175, 25° C., pH 7.4, read-out: CAXII KD
[3] = read-out: CAIX KD; Chelated Metal: Lu-175; SPR, 25° C., pH 7.4
[4] = read-out: CAXII KD, Chelated Metal: Lu-175, 25° C., pH 7.4
[5] = Chelated Metal: None; SPR, 25° C., pH 7.4; read-out: CAIX KD
[6] = KD ratio CAXII/CAIX; Chelated Metal: None
[7] = Chelated Metal: None, 25° C., pH 7.4, read-out: CAXII KD

T2 sequence (O43570 25-354): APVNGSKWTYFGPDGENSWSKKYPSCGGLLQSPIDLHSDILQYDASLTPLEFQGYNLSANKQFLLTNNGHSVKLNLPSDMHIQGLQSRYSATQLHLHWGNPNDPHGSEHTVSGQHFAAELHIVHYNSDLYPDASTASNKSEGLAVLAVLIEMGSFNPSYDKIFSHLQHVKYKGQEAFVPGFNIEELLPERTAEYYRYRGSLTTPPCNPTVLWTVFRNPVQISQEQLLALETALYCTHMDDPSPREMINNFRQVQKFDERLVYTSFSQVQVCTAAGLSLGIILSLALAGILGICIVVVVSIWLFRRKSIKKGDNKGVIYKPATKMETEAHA

Row | Compound | pKd (human CA-IX; [1]) | pKd (human CA-XII; [2]) | pKd (human CA-IX; [3]) | pKd (human CA-XII; [4]) | further results
1 | CC(CCCC(=O)N1CCC(C(N)=O)(C(=O)NCC(=O)NC2(C(=O)NCCn3cc(C45CC(C(=O)Nc6nnc(S(N)(=O)=O)s6)(C4)C5)nn3)CCN(C(=O)CCOCCOCCOCCOCCOCCOCCOCCOCCNC(=O)CN3CCN(CC(=O)O)CCN(CC(=O)O)CCN(CC(=O)O)CC3)CC2)CC1)(c1ccc(O)cc1)c1ccc(O)cc1.[Lu+3] [Compound 129.5] | > 9.00 | < 8.00 |  |  | 
2 | CC(CCCC(=O)N1CCC(C(N)=O)(C(=O)NCC(=O)NC2(C(=O)NCCn3cc(C45CC(C(=O)Nc6nnc(S(N)(=O)=O)s6)(C4)C5)nn3)CCN(C(=O)CN3CC4(C3)CN(C(=O)CN3CCN(CC(=O)O)CCN(CC(=O)O)CCN(CC(=O)O)CC3)C4)CC2)CC1)(c1ccc(O)cc1)c1ccc(O)cc1.[Lu+3] [Compound 129.7] | > 9.00 | < 8.00 |  |  | 
3 | CC(CCC(=O)N[C@@H](CC(=O)N[C@@H](CC(=O)N1CCN(C(=O)CCOCCOCCOCCOCCOCCOCCOCCOCCNC(=O)CN2CCN(CC(=O)O)CCN(CC(=O)O)CCN(CC(=O)O)CC2)C[C@H]1C(=O)NCCn1cc(C23CC(C(=O)Nc4nnc(S(N)(=O)=O)s4)(C2)C3)nn1)C(=O)O)C(=O)O)(c1ccc(O)cc1)c1ccc(O)cc1.[Lu+3] [Compound 129] |  |  | 8.60 to 9.00 | < 8.00 | 
4 | CC(CCC(=O)N[C@@H](CC(=O)N[C@@H](CC(=O)N1CCN(C(=S)Nc2ccc3c(c2)OCCN(Cc2cccc(C(=O)O)n2)CCOCCOCCN(Cc2cccc(C(=O)O)n2)CCO3)C[C@H]1C(=O)NCCn1cc(C23CC(C(=O)Nc4nnc(S(N)(=O)=O)s4)(C2)C3)nn1)C(=O)O)C(=O)O)(c1ccc(O)cc1)c1ccc(O)cc1 [Compound 130] |  |  |  |  | pKd (human CA-IX; [5]): > 9.00; Ratio (CAXII/CAIX) (human CA-IX; [6]): *** (10 < *** ≤ 50); pKd (human CA-XII; [7]): 8.00 to 8.60
5 | CC(CCC(=O)N[C@@H](CC(=O)N[C@@H](CC(=O)N1CCN(C(=O)CCOCCOCCOCCOCCN(CCOCCOCCOCCOCCC(=O)N2CCN(C(=O)C[C@H](NC(=O)C[C@H](NC(=O)CCC(C)(c3ccc(O)cc3)c3ccc(O)cc3)C(=O)O)C(=O)O)[C@H](C(=O)NCCn3cc(C45CC(C(=O)Nc6nnc(S(N)(=O)=O)s6)(C4)C5)nn3)C2)C(=O)CN2CCN(CC(=O)O)CCN(CC(=O)O)CCN(CC(=O)O)CC2)C[C@H]1C(=O)NCCn1cc(C23CC(C(=O)Nc4nnc(S(N)(=O)=O)s4)(C2)C3)nn1)C(=O)O)C(=O)O)(c1ccc(O)cc1)c1ccc(O)cc1 [Compound 131.1] |  |  |  |  | pKd (human CA-IX; [5]): > 9.00; Ratio (CAXII/CAIX) (human CA-IX; [6]): * (1 < * < 5); pKd (human CA-XII; [7]): > 9.00
6 | CC(CCC(=O)N[C@@H](CC(=O)N[C@@H](CC(=O)N1CCN(C(=O)CCOCCOCCOCCOCCN(CCOCCOCCOCCOCCC(=O)N2CCN(C(=O)C[C@H](NC(=O)C[C@H](NC(=O)CCC(C)(c3ccc(O)cc3)c3ccc(O)cc3)C(=O)O)C(=O)O)[C@H](C(=O)NCCn3cc(C45CC(C(=O)Nc6nnc(S(N)(=O)=O)s6)(C4)C5)nn3)C2)C(=O)CNC(=O)CN2CCN(CC(=O)O)CCN(CC(=O)O)CCN(CC(=O)O)CC2)C[C@H]1C(=O)NCCn1cc(C23CC(C(=O)Nc4nnc(S(N)(=O)=O)s4)(C2)C3)nn1)C(=O)O)C(=O)O)(c1ccc(O)cc1)c1ccc(O)cc1 [Compound 131.2] |  |  |  |  | pKd (human CA-IX; [5]): > 9.00; pKd (human CA-XII; [7]): > 9.00
7 | CC(CCCC(=O)N1CCOC[C@H]1C(=O)N[C@@H](CC(=O)N1CCN(C(=O)CCOCCOCCOCCOCCN(CCOCCOCCOCCOCCC(=O)N2CCN(C(=O)C[C@H](NC(=O)[C@@H]3COCCN3C(=O)CCCC(C)(c3ccc(O)cc3)c3ccc(O)cc3)C(=O)O)[C@@H](C(=O)NCCn3cc(C45CC(C(=O)Nc6nnc(S(N)(=O)=O)s6)(C4)C5)nn3)C2)C(=O)CNC(=O)CN2CCN(CC(=O)O)CCN(CC(=O)O)CCN(CC(=O)O)CC2)C[C@@H]1C(=O)NCCn1cc(C23CC(C(=O)Nc4nnc(S(N)(=O)=O)s4)(C2)C3)nn1)C(=O)O)(c1ccc(O)cc1)c1ccc(O)cc1.[Lu+3] [Compound 131.3] | > 9.00 | > 9.00 |  |  | 
8 | CC(CCC(=O)N[C@@H](CC(=O)N[C@@H](CC(=O)N1CCN(C(=O)CCC(CCC(=O)N2CCN(C(=O)C[C@H](NC(=O)C[C@H](NC(=O)CCC(C)(c3ccc(O)cc3)c3ccc(O)cc3)C(=O)O)C(=O)O)[C@H](C(=O)NCCn3cc(C45CC(C(=O)Nc6nnc(S(N)(=O)=O)s6)(C4)C5)nn3)C2)NC(=O)CN2CCN(CC(=O)O)CCN(CC(=O)O)CCN(CC(=O)O)CC2)C[C@H]1C(=O)NCCn1cc(C23CC(C(=O)Nc4nnc(S(N)(=O)=O)s4)(C2)C3)nn1)C(=O)O)C(=O)O)(c1ccc(O)cc1)c1ccc(O)cc1 (stereo partly shown) [Compound 131.4] |  |  |  |  | pKd (human CA-IX; [5]): > 9.00; Ratio (CAXII/CAIX) (human CA-IX; [6]): * (1 < * < 5); pKd (human CA-XII; [7]): > 9.00
9 | N[C@@H](CC(=O)N[C@@H](CC(=O)N1CCN(C(=O)CCOCCOCCOCCOCCN(CCOCCOCCOCCOCCC(=O)N2CCN(C(=O)C[C@H](NC(=O)C[C@H](N)C(=O)O)C(=O)O)[C@H](C(=O)NCCn3cc(C45CC(C(=O)Nc6nnc(S(N)(=O)=O)s6)(C4)C5)nn3)C2)C(=O)CNC(=O)CN2CCN(CC(=O)O)CCN(CC(=O)O)CCN(CC(=O)O)CC2)C[C@H]1C(=O)NCCn1cc(C23CC(C(=O)Nc4nnc(S(N)(=O)=O)s4)(C2)C3)nn1)C(=O)O)C(=O)O.[Lu+3] [Compound 131.5] | > 9.00 | > 9.00 |  |  | 
10 | CC(CCCC(=O)N1CCOC[C@H]1C(=O)N[C@@H](CC(=O)N1CCN(C(=O)CCOCCOCCOCCOCCN(CCOCCOCCOCCOCCC(=O)N2CCN(C(=O)C[C@H](NC(=O)[C@@H]3COCCN3C(=O)CCCC(C)(c3ccc(O)cc3)c3ccc(O)cc3)C(N)=O)[C@@H](C(=O)NCCn3cc(C45CC(C(=O)Nc6nnc(S(N)(=O)=O)s6)(C4)C5)nn3)C2)C(=O)CNC(=O)CN2CCN(CC(=O)O)CCN(CC(=O)O)CCN(CC(=O)O)CC2)C[C@@H]1C(=O)NCCn1cc(C23CC(C(=O)Nc4nnc(S(N)(=O)=O)s4)(C2)C3)nn1)C(N)=O)(c1ccc(O)cc1)c1ccc(O)cc1.[Lu+3] [Compound 131.6] | > 9.00 | 8.60 to 9.00 |  |  | 
11 | CC(CCCC(=O)N1CCC(C(N)=O)(C(=O)NCC(=O)NC2CCN(C(=O)CCOCCOCCOCCOCCN(CCOCCOCCOCCOCCC(=O)N3CCC(NC(=O)CNC(=O)C4(C(N)=O)CCN(C(=O)CCCC(C)(c5ccc(O)cc5)c5ccc(O)cc5)CC4)C(C(=O)NCCn4cc(C56CC(C(=O)Nc7nnc(S(N)(=O)=O)s7)(C5)C6)nn4)C3)C(=O)CNC(=O)CN3CCN(CC(=O)O)CCN(CC(=O)O)CCN(CC(=O)O)CC3)CC2C(=O)NCCn2cc(C34CC(C(=O)Nc5nnc(S(N)(=O)=O)s5)(C3)C4)nn2)CC1)(c1ccc(O)cc1)c1ccc(O)cc1.[Lu+3] (stereo not shown) [Compound 131.7] | > 9.00 | 8.60 to 9.00 |  |  | 
12 | CC(CCCC(=O)N1CCC(C(N)=O)(C(=O)NCC(=O)N2CCN(C(=O)CCOCCOCCOCCOCCN(CCOCCOCCOCCOCCC(=O)N3CCN(C(=O)CNC(=O)C4(C(N)=O)CCN(C(=O)CCCC(C)(c5ccc(O)cc5)c5ccc(O)cc5)CC4)[C@H](C(=O)NCCn4cc(C56CC(C(=O)Nc7nnc(S(N)(=O)=O)s7)(C5)C6)nn4)C3)C(=O)CNC(=O)CN3CCN(CC(=O)O)CCN(CC(=O)O)CCN(CC(=O)O)CC3)C[C@H]2C(=O)NCCn2cc(C34CC(C(=O)Nc5nnc(S(N)(=O)=O)s5)(C3)C4)nn2)CC1)(c1ccc(O)cc1)c1ccc(O)cc1.[Lu+3] [Compound 131] |  |  | > 9.00 | 8.00 to 8.60 | 
13 | NS(=O)(=O)c1nnc(NC(=O)C23CCC(c4cn(CCNC(=O)[C@@H]5CN(C(=O)CCCc6ccc(O)cc6)CCN5C(=O)CC[C@H](NC(=O)C[C@H](NC(=O)CN5CCN(CC(=O)O)CCN(CC(=O)O)CCN(CC(=O)O)CC5)C(=O)O)C(=O)O)nn4)(CC2)CC3)s1.[Lu+3] [Compound 132] |  |  | > 9.00 | 8.60 to 9.00 | 
14 | CC(C)(CCCC(=O)N1CCC(C(N)=O)(C(=O)NCC(=O)N2CCN(C(=O)CN3CCN(CC(=O)O)CCN(CC(=O)O)CCN(CC(=O)O)CC3)C[C@H]2C(=O)NCCn2cc(C34CC(C(=O)Nc5nnc(S(N)(=O)=O)s5)(C3)C4)nn2)CC1)c1ccc(O)cc1.[Lu+3] [Compound 133] |  |  | > 9.00 | < 8.00 | 
15 | CC(CCCC(=O)N1CCC(C(N)=O)(C(=O)NCC(=O)NC2(C(=O)N[C@@H](Cn3cc(C45CC(C(=O)Nc6nnc(S(N)(=O)=O)s6)(C4)C5)nn3)C(=O)O)CCN(C(=O)CN3CCN(CC(=O)O)CCN(CC(=O)O)CCN(CC(=O)O)CC3)CC2)CC1)(c1ccc(O)cc1)c1ccc(O)cc1.[Lu+3] [Compound 134] |  |  | > 9.00 | < 8.00 | 
16 | CC(CCCC(=O)N1CCC(C(N)=O)(C(=O)NCC(=O)NC2(C(=O)NCCn3nnc(C45CC(C(=O)Nc6nnc(S(N)(=O)=O)s6)(C4)C5)c3C(=O)O)CCN(C(=O)CN3CCN(CC(=O)O)CCN(CC(=O)O)CCN(CC(=O)O)CC3)CC2)CC1)(c1ccc(O)cc1)c1ccc(O)cc1.[Lu+3] [Compound 135] |  |  | > 9.00 | < 8.00 | 
17 | CC(CCCC(=O)N1CCC(C(N)=O)(C(=O)NCC(=O)NC2(C(=O)NCCn3nnc(C45CC(C(=O)Nc6nnc(S(N)(=O)=O)s6)(C4)C5)c3C(N)=O)CCN(C(=O)CN3CCN(CC(=O)O)CCN(CC(=O)O)CCN(CC(=O)O)CC3)CC2)CC1)(c1ccc(O)cc1)c1ccc(O)cc1.[Lu+3] [Compound 136] |  |  | > 9.00 | < 8.00 | 
